Measurements: patent US20040152640A1, “Preparation for the prevention and or treatment of altered bone metabolism” (priority 2001, published 2004)

Tested on: mouse bone marrow cells
Experiment: Alkaline phosphatase (ALP) activity assay in mouse bone marrow cells (marker for osteoblast differentiation)
Type: cell-based
Parameters: dose or concentration left out as unconfirmed
Settings: mice bone marrow cells, 3 weeks exposure; with ascorbic acid and β-glycerolphosphate; stimulation more pronounced than genistein
Procedure: Bone marrow cells were isolated from six months old female NMRI mice. After washing, the cells were diluted in phenol red free α-MEM (1% p/s, 15% charcoal treated FCS) and seeded in 24-well plates (1.25*10^6 cells/well). After 24 hours incubation (37° C., 5% CO2) the cells were exposed to the active components (1*10^−5, 1*10^−6 and 1*10^−7 M) together with ascorbic acid (50 μg/ml) and β-glycerolphosphate (1 mM). Exposure media were refreshed every 3 days. After 2 and 3 weeks of incubation, cells were washed with PBS and stored at −20° C. After lysis DNA amounts and alkaline phosphatase activities were determined as described below. The DNA amounts are measured to determine to the number of cells and the alkaline phosphatase activity is used as a marker for osteoblast differentiation. 300 μl lysis buffer (1×SSC/0.01% SDS) was added to the frozen cells. After 1 hour incubation (37° C.) the plates were sonified for 10 minutes and cell suspensions were used for ALP activity measurements. 25 μl cell lysate was transferred in duplicate to 96-well plates. 25 μl of 1*SSC/0.01% SDS served as a negative control. […] ALP activity was measured at a wavelength of 405 nm at room temperature during 10 minutes at 30-second intervals. […] Activity is expressed as nmol p-nitrophenol production/minute/well. (Mean±sem, 2 independent experiments measured in duplicate)

Compound | alkaline phosphatase signal in differentiated osteoblasts
O=c1cc(-c2ccc(O)cc2)oc2cc(O)cc(O)c12 [apigenin] | increased alkaline phosphatase signal
O=c1cc(-c2ccc(O)c(O)c2)oc2cc(O)cc(O)c12 [luteolin] | increased alkaline phosphatase signal
